Peptide text beside a SMILES is read from it.
Tests used:
[1] = tested on: cytochrome P450; assay: Cytochrome P450 activity in HaCaT cells (P450-Glo Assay kit); format: cell-based; conditions: HaCaT human keratinocytes; peptide pretreatment 1 hour at 20, 100, 200 μM; then 50 μg/cm^2 urban particulate matter 24 hours; FIG. 3
Text: When polyaromatic hydrocarbons (PAHs) present in particulate matter penetrate into cells and bind to AHR, it promotes nuclear translocation of AHR. It is known that the AHR translocated into the nucleus forms a complex AHR/ARNT with an AHR nuclear translocator (ARNT), and this complex act as a transcription factor to promote the expression of cytochrome P450 (CYPs). In order to confirm the effect of the synthesized peptide in inhibiting cell damage caused by particulate matter, an experiment was performed for confirming whether the peptide inhibits the activity of cytochrome P450 after the cells were treated with particulate matter.
First, HaCaT cells, which are human keratinocytes, were seeded into a 96-well plate at a density of 1×10^4 cells/well. After overnight incubation, the media were replaced with serum-free media. The keratinocytes, HaCaT were pretreated with the synthesized peptides for 1 hour at each concentration (20 μM, 100 μM, and 200 μM). Then, the cells were treated with 50 μg/cm^2 of urban particulate matter (Sigma, NIST1648A) for 24 hours. After the keratinocytes were collected, the activity of cytochrome P450 was measured using P450-Glo™ Assay kit (Promega).

[2] = tested on: cytochrome P450; assay: Cytochrome P450 activity in A549 cells (P450-Glo Assay kit); format: cell-based; conditions: A549 human alveolar epithelial cells; peptide pretreatment 1 hour at 20, 100, 200 μM; then 50 μg/cm^2 urban particulate matter 24 hours; FIG. 4
Procedure: In addition, in order to confirm whether the peptide of the present invention can suppress respiratory damage caused by particulate matter, an experiment for measuring the activity of cytochrome P450 was also performed on A549 cells, which are human alveolar epithelial cells.
First, human alveolar epithelial cells, A549 cells were seeded into a 96-well plate at a density of 1.2×10^4 cells/well. After overnight incubation, the media were replaced with serum-free media. The alveolar epithelial cells, A549 cells were pretreated with the synthesized peptides for 1 hour at each concentration (20 μM, 100 μM, and 200 μM). Then, the cells were treated with 50 μg/cm^2 of urban particulate matter (Sigma, NIST1648A) for 24 hours. After the treated cells were collected, the activity of cytochrome P450 was measured using P450-Glo™ Assay kit (Promega).

`CSCC[C@H](NC(=O)[C@H](Cc1ccc(O)cc1)NC(=O)[C@@H](N)Cc1c[nH]c2ccccc12)C(=O)O` [SEQ ID NO: 1, Trp Tyr Met] (H-Trp-Tyr-Met-OH; N-terminus and C-terminus assumed) was tested, and the “activity of cytochrome P450 increased by the treatment of particulate matter” value [1] was “reduced” and the “activity of cytochrome P450 increased by the treatment of particulate matter” value [2] was “reduced”.

Source: patent publication US20240092829A1, “PEPTIDE HAVING PROTECTIVE ACTIVITY AGAINST CELL DAMAGE CAUSED BY PARTICULATE MATTER, AND USES FOR SAME” (CAREGEN CO., LTD., priority 2020, published 2024)
